Measurements from patent publication US20230372382A1, “USE OF ADENOSINE DIPHOSPHATE RIBOSE FOR ADJUVANT THERAPY WITH RADIATION AND/OR ANTI-CANCER TREATMENT” (PearlsInMires Co., Ltd., priority 2021, published 2023).

Assays:
AsPC-1 cells [1] = test: ADP-ribose quantitative analysis (ELISA) in cancer cells; assay type: cell-based; conditions: 8 μM ADP-ribose, 24 hours, P<0.001
Procedure: (§1) After culturing, the culture medium was removed, the cells were washed with phosphate-buffered saline, and then RIPA buffer was added and the cells were left on ice for 20 minutes. After scraping the cells, the cells were put in a centrifuge tube and centrifuged for 10 minutes at 10,000 g and 4° C. The supernatant was obtained, and 1% SDS was added, and then the reaction product was boiled at 100° C. for 5 minutes and cooled on ice. The supernatant was centrifuged again at 10,000 g and 4° C. for 10 minutes to obtain the final supernatant, and ADP-ribose was quantitatively analyzed and compared using an ELISA analysis kit (Cell Biolabs, Inc., San Diego, CA, USA).
(§2) The medium of the cultured cells was removed, and the supernatant prepared by treatment with RIPA buffer and 1% sodium dodecyl sulfate (SDS) was used for ELISA analysis to detect and analyze ADP-ribose.

Caki-1 cells = test: as above; assay type: cell-based; conditions: 16 μM ADP-ribose, 24 hours, P<0.001
Procedure: as §1, §2

H1975 cells = test: as above; assay type: cell-based; conditions: 4 μM ADP-ribose, 24 hours, P<0.001
Procedure: as §1, §2

HCT116 cells [2] = test: as above; assay type: cell-based; conditions: 8 μM ADP-ribose, 24 hours, P<0.001
Procedure: as §1, §2

U-87MG cells = test: as above; assay type: cell-based; conditions: 8 μM ADP-ribose, 24 hours, P<0.001
Procedure: as §1, §2

[3] = test system: Lung cancer (H1975) cells; test: Cell death by combination treatment with anti-cancer drug (MTT); assay type: cell-based; conditions: Homo sapiens, NCI-H1975; H1975, ADP-ribose 1.6 μM in combination with osimertinib 1 nM, 24 hours, P<0.001
AsPC-1 cells [4] = test: Change over time in intracellular ADP-ribose, radiation versus ADP-ribose treatment (ELISA); assay type: cell-based; conditions: AsPC-1, 2 μM ADP-ribose, even after 24 hours; after radiation back to untreated level from 16 hours
Procedure: Brain cancer (U-87MG), kidney cancer (Caki-1), pancreatic cancer (AsPC-1), or breast cancer (MDA-MB-231) cells were cultured in a 6-well plate, respectively, and the cells were divided into the untreated group, the radiation-treated group, and the ADP-ribose-treated group. Irradiation was performed using an X-Rad 320 irradiator (Precision X-ray, North Branford, CT, USA), and cancer cells were treated with a total of 1, 2, and 5 Gy at a dose rate of 300 kVp and 150 cGy/min using an X-ray beam filter composed of 12.5 mA and 2.0 mm Al, respectively. Before treatment and at 4, 8, 16, and 24 hours after treatment, the medium was removed, the cells were washed with phosphate-buffered saline, and then RIPA buffer was added and the products were left on ice for 20 minutes. After scraping the cells, the cells were put in a centrifuge tube and centrifuged for 10 minutes at 10,000 g and 4° C. The supernatant was obtained, and 1% SDS was added, and then the reaction product was boiled at 100° C. for 5 minutes and cooled on ice. The supernatant was centrifuged again at 10,000 g and 4° C. for 10 minutes to obtain the final supernatant, and ADP-ribose was quantitatively analyzed using an ELISA analysis kit (Cell Biolabs, Inc., San Diego, CA, USA). […]

Hep G2 cells = test: Cell death by combination treatment of ADP-ribose and radiation (MTT); assay type: cell-based; conditions: Hep G2, 4 μM ADP-ribose in combination with 2 Gy radiation, 24 hours, P<0.001; 2 Gy alone about 82.3%
Procedure: (§3) 3×10^3 Brain cancer (U-87MG), lung cancer (H1975), pancreatic cancer (Aspc-1), liver cancer (Hep G2), breast cancer (MDA-MB-231), colon cancer (HCT116), and kidney cancer (Caki-1) cells were cultured in a 96-well plate for 24 hours under conditions of 37° C. and 5% CO2, treated with ADP-ribose or 2 or 5 Gy radiation alone or in combination with ADP-ribose and 2 Gy radiation, and cultured for 24 hours under conditions of 37° C. and 5% CO2 again. Then, 10 μl of 3-(4,5-dimethylthiazol-2-yl)-2,5-diphenyltetrazolium bromide reagent was added to each well and reacted for 1 hour. After the reaction was completed, the reagent was removed, 200 μl of dimethyl sulfoxide was added to each well, and the absorbance was measured to compare the degree of cell death.
3×10^3 Hep G2 cells were cultured in a 96-well plate for 24 hours under conditions of 37° C. and 5% CO2, treated with 4 μM of ADP-ribose and 2 or 5 Gy dose of radiation individually or in combination, and cultured for 24 hours under conditions of 37° C. and 5% CO2 again. Then, 10 μl of 3-(4,5-dimethylthiazol-2-yl)-2,5-diphenyltetrazolium bromide reagent was added to each well and reacted for 1 hour. After the reaction was completed, the reagent was removed, 200 μl of dimethyl sulfoxide was added to each well, and the absorbance was measured to confirm cell viability.

HCT116 cells [5] = test: as above; assay type: cell-based; conditions: HCT116, 16 μM ADP-ribose in combination with 2 Gy radiation, 24 hours, P<0.001; 2 Gy alone about 90.3%
Procedure: as §3
3×10^3 HCT116 cells were cultured in a 96-well plate for 24 hours under conditions of 37° C. and 5% CO2, treated with 16 μM of ADP-ribose and 2 or 5 Gy dose of radiation individually or in combination, and cultured for 24 hours under conditions of 37° C. and 5% CO2 again. Then, 10 μl of 3-(4,5-dimethylthiazol-2-yl)-2,5-diphenyltetrazolium bromide reagent was added to each well and reacted for 1 hour. After the reaction was completed, the reagent was removed, 200 μl of dimethyl sulfoxide was added to each well, and the absorbance was measured to confirm cell viability.

[6] = test system: Kidney cancer (Caki-1) cells; test: Xenograft model, combination with radiation, tumor volume; assay type: in vivo, BALB/c nude mice; conditions: Caki-1 xenograft
Procedure: Brain cancer (U-87MG), pancreatic cancer (AsPC-1), breast cancer (MDA-MB-231), or kidney cancer (Caki-1) cells (1×10^7 cells) were inoculated into 5-week-old BALB/c nude mice on the back flank, respectively. Then, when tumors were grown to a volume of approximately 150 mm^3, the mice were divided into three groups: the control group (Control), 2 Gy dose of radiation alone, and a combination administration of 2 Gy dose of radiation+10 mg/kg of ADP-ribose (subcutaneous administration, 3 times a week). The irradiation was performed with an X-Rad 320 irradiator (Precision X-ray, North Branford, CT, USA), wherein the mice were placed by maintaining an appropriate distance from the radiation source for irradiation with a predetermined radiation dose. A lead shield was used to protect the body parts or organs from exposure to radiation, other than the cancerous part of the mouse. The irradiation was performed with a total of 2 Gy of radiation fractionated into two doses of 1 Gy each (for 2 days) at a dose rate of 300 kVp and 150 cGy/min using an X-ray beam filter composed of 12.5 mA and 2.0 mm Al. The tumor size was measured every 6 days using a digital caliper, and the results of changes in tumor volume were compared by the group.
Kidney cancer (Caki-1) cells (1×10^7) were inoculated into 5-week-old BALB/c nude mice on the back flank, and the mice were divided into three groups: the control group (Control), 2 Gy dose of radiation alone, and combination administration of 2 Gy dose radiation+20 mg/kg of ADP-ribose. When the tumors were grown to a volume of approximately 150 mm^3, 2 Gy dose of radiation was irradiated twice at 1 Gy each, and 20 mg/kg of ADP-ribose was injected subcutaneously 3 times a week. The tumor size was measured using a digital caliper, and the results of changes in tumor volume were compared by the group.

[7] = ADP-ribose 20 mg/kg s.c. + 2 Gy radiation, P<0.001

Nc1ncnc2c1ncn2[C@@H]1O[C@H](COP(=O)(O)OP(=O)(O)OC[C@H]2O[C@@H](O)C(O)C2O)C(O)C1O (stereo partly drawn) [ADP-ribose, adenosine diphosphate ribose]
amount of ADP-ribose in cells compared to the control group (AsPC-1 cells [1]): remarkably increased significantly
amount of ADP-ribose in cells compared to the control group (Caki-1 cells): remarkably increased significantly
amount of ADP-ribose in cells compared to the control group (H1975 cells): remarkably increased significantly
amount of ADP-ribose in cells compared to the control group (HCT116 cells [2]): remarkably increased significantly
amount of ADP-ribose in cells compared to the control group (U-87MG cells): remarkably increased significantly
viability at 1.6 µM [3]: ~0.9%
amount of ADP-ribose in the cells over time compared to the control group (AsPC-1 cells [4]): maintained a significant (P<0.001) increase
survival rate of cancer cells (Hep G2 cells): about 7.3%
survival rate of cancer cells (HCT116 cells [5]): about 14%
reduction of tumor volume compared to the control group [6, 7]: about 70%
reduction of tumor volume compared to the group treated with 2 Gy dose of radiation alone [6, 7]: about 68%
final tumor volume ([6]; ADP-ribose 20 mg/kg subcutaneous 3 times a week + 2 Gy radiation, control about 2620.5, 2 Gy alone about 2454.5): about 786.4 mm^3
